{
  "source": "patent US20250275938A1",
  "about": "“COMPOSITIONS AND METHODS FOR TREATMENT OF CANCER” (SCIROSBIO (FZC), priority 2022, published 2025)",
  "key": {"[1]": {"system": "TBARS in C6 cells", "test": "TBARS (MDA) assay, C6", "format": "cell-based, rat", "details": "vs control", "method": "Determination of TBARS levels. TBARS (thiobarbituric acid reactive substances), by-products of lipid peroxidation, were analyzed by measuring the concentration of malondialdehyde (MDA). The levels of MDA were measured in cell lysates using TBARS assay (Catalog No. 10009055, Cayman Chemical, Ann Arbor, USA). The concentration of lipid peroxides was calculated as an MDA equivalent using the extinction coefficient for the MDA-TBA complex of 1.56×10^5 M−1 cm^−1 at 532 nm."}, "[2]": {"system": "rat brain tissue", "test": "Gene expression (qRT-PCR) in brain tissue of glioma-induced rats", "format": "in vivo", "details": "i.p. 7 days; vs tumor-control", "method": "Quantitative RT-PCR analysis of antioxidant enzymes (SOD and CAT), oxidative stress marker (Nrf-2), and apoptosis markers (BCL2 and Caspase-9). Total RNA from all experimental groups was isolated using RNA Express reagent (HiMedia, India) and the respective cDNAs were synthesized using a Hi-c-DNA Synthesis Kit (HiMedia, India). Quantitative RT-PCR was carried out using a CFX 96 thermocycler (Bio-Rad, Hercules, CA) and TB Green Premix Ex Taq 1 (Takara Bio, Otsu, Japan) to detect mRNA. Independent experiments were conducted in triplicate. The cycle threshold (Ct), representing a positive PCR result, is defined as the cycle number at which a sample's fluorescence intensity crossed the threshold automatically determined by the CFX 96.\nThe relative changes in gene expression were calculated with the 2^−ΔΔCt method, wherein ΔΔCt=(Cttarget gene−Ctβ-actin) sample−([…]) calibrator.\nThe qPCR analyses were performed to measure the expression levels of genes associated with anti-Warburg effect. The total RNA was extracted from the cell lysates and brain tissues of all the experimental groups using TRIZOL reagent (Takara Bio, Shiga, Japan). Quantitative RT-PCR was carried out using a CFX96 Real Time PCR Detection System (Bio-Rad, California, USA) and TB Green Premix Ex Taq I (Takara Bio, Shiga, Japan) to detect messenger ribonucleic acid (mRNA). […]"}, "[3]": {"system": "VEGF", "test": "Immunohistochemistry of tumor sections, VEGF", "format": "in vivo, rat", "details": "i.p. 7 days; tumor-control 73.58%", "method": "Immunohistochemistry. For immunohistochemistry (IHC) analysis, 4 μm thick tissue sections were deparaffinized in xylene and hydrated by immersing in a series of graded ethanol concentration (100%, 95%, 75% and 50%). Endogenous peroxidase activity was blocked by incubating sections in 3% H2O2 solution prepared in methanol at room temperature for 10 minutes and were washed with PBS twice for 5 minutes each. Antigen retrieval was performed by immersing the slides in 300 ml of retrieval buffer (10 mM citrate buffer, pH 6.0) for one hour at 100° C. and were rinsed twice in PBS. Sections were then incubated with approximately 100 μl diluted primary antibodies of Ki67 (1:100 dilution, Elabscience, Wuhan, China) and Vascular Endothelial Growth Factor (VEGF) (1:100 dilution, Elabscience, Wuhan, China) for 30 minutes at room temperature. The slides were then washed twice with PBS and were then incubated with approximately 100 μl of diluted secondary antibody (Cat No. E-IR-R213, Elabscience, Wuhan, China) at room temperature for 30 minutes. Slides were then washed in PBS for 5 minutes, followed by incubation with approximately 100 μl diluted Horse Radish Peroxidase (HRP) conjugate for 30 minutes. […] The staining intensities were quantified using IHC Profiler, a plugin in ImageJ software, to determine the H-score (Histo score)."}, "[4]": {"test": "LC/MS of drugs and active metabolites in plasma and brain (blood brain barrier)", "format": "in vivo, rat", "method": "T, M & E (Sigma Aldrich, St. Louis, USA) were dissolved in sterile water and administered intra peritoneally for 7 days (from day 21 to day 27; where the day of tumor induction is considered day 0) to a rat with the dose specified in Table-4 (TME: 50+80+150 mg/kg body weight). After 7 days of treatment (on day 28), blood (plasma) was collected and the rat was euthanized, immediately the brain tissue was collected and stored at −80° C. The brain tissue was then processed accordingly to measure active metabolites through LC/MS.\nTo 100 μl of plasma or brain (0.5 g crushed in 0.5 mL of sterile water), 20 μl of the working internal standard solution was added. The samples were deproteinised with acetonitrile and the supernatant (100 μl) was injected into the chromatographic system. For the brain, as described above, ciprofloxacin solution (20 μl) was added to 100 μl of crushed brain. Then, repeating the plasma sample process, 20 μl of the solution was injected into the chromatographic system."}, "[5]": {"system": "HEK293T (Human Embryonic Kidney) cells", "test": "Trypan blue exclusion cytotoxicity on normal cell line", "format": "cell-based", "details": "treated at IC50 values determined in U87MG and C6, 24 hours", "method": "Cytotoxicity on a normal cell line.\nFurthermore, to check for the cytotoxicity of the drugs, a trypan blue dye exclusion assay was performed on a normal cell line, HEK293T, using the IC50 values of each drug, individually and in combination, as determined in U87MG and C6 cells and shown in Table 2."}, "[6]": {"details": "triple combination TME 50+80+150 mg/kg i.p. 7 days, NA = not detected"}},
  "data": [
    {"compound": "O=C(O[C@@H]1Cc2c(O)cc(O)cc2O[C@@H]1c1cc(O)c(O)c(O)c1)c1cc(O)c(O)c(O)c1", "note": "[EGCG, [(2R,3R)-5,7-dihydroxy-2-(3,4,5-trihydroxyphenyl)-3,4-dihydro-2H-chromen-3-yl] 3,4,5-trihydroxybenzoate]", "values": [
      {"measurement": "TBARS levels", "setting": "[1]", "result": "significantly elevated"},
      {"measurement": "gene expression levels of Nrf-2 and HIF-1α", "setting": "[2]", "result": "reduced expression"},
      {"measurement": "cytoplasmic positivity for VEGF (H-score)", "setting": "[3]", "result": 44.45, "unit": "%"},
      {"measurement": "transport across the blood brain barrier, in words", "setting": "[4]; administered individually and in combination", "result": "crossed the BBB in its native form"},
      {"measurement": "Detected mass in LC-MS Brain", "setting": "[4]; individually treated T, M and E, i.p. 7 days, NA = not detected", "result": 466.11},
      {"measurement": "Detected mass in LC-MS Brain", "setting": "[4]; [6]", "result": 456.11},
      {"measurement": "Detected mass in LC-MS Plasma", "setting": "[4]; [6]", "result": 452.91},
      {"measurement": "toxicity in normal HEK293T cells", "setting": "[5]", "result": "significant reduction in toxicity"}
    ]}
  ]
}
